Data on seven compounds can be found in patent publication US20220251114A1, “AZEPINES AS HBV CAPSID ASSEMBLY MODULATORS” (Janssen Sciences Ireland Unlimited Company, priority 2019, published 2022).

For this assay, the system named is HBV. Nature of the assay: HBV replication inhibition assay (BDNA assay) in HepG2.2.15 cells. In kind it is cell-based. The settings on record: Hepatitis B virus, 144 h, 6 days treatment, encapsidated HBV DNA in supernatant by branched DNA QuantiGene assay. The method, then:
HBV replication inhibition by the disclosed compounds were determined in cells infected or transfected with HBV or cells with stably integrated HBV, such as HepG2.2.15 cells (Sells et al. 1987). In this example, HepG2.2.15 cells were maintained in cell culture medium containing 10% fetal bovine serum (FBS), Geneticin, L-glutamine, penicillin and streptomycin. HepG2.2.15 cells were seeded in 96-well plates at a density of 40,000 cells/well and were treated with serially diluted compounds at a final DMSO concentration of 0.5% either alone or in combination by adding drugs in a checker box format. Cells were incubated with compounds for three days, after which medium was removed and fresh medium containing compounds was added to cells and incubated for another three days. At day 6, supernatant was removed and treated with DNase at 37° C. for 60 minutes, followed by enzyme inactivation at 75° C. for 15 minutes. Encapsidated HBV DNA was released from the virions and covalently linked HBV polymerase by incubating in lysis buffer (Affymetrix QS0010) containing 2.5 μg proteinase K at 50° C. for 40 minutes. HBV DNA was denatured by addition of 0.2 M NaOH and detected using a branched DNA (BDNA) QuantiGene assay kit according to manufacturer recommendation (Affymetrix). HBV DNA levels were also quantified using qPCR, based on amplification of encapsidated HBV DNA extraction with QuickExtraction Solution (Epicentre Biotechnologies) and amplification of HBV DNA using HBV specific PCR probes that can hybridize to HBV DNA and a fluorescently labeled probe for quantitation. In addition, cell viability of HepG2.2.15 cells incubated with test compounds alone or in combination was determined by using CellTitre-Glo reagent according to the manufacturer protocol (Promega). The mean background signal from wells containing only culture medium was subtracted from all other samples, and percent inhibition at each compound concentration was calculated by normalizing to signals from HepG2.2.15 cells treated with 0.5% DMSO using equation El.
E1: % inhibition=(DMSOave−Xi)/DMSOave×100%
where DMSOave is the mean signal calculated from the wells that were treated with DMSO control (0% inhibition control) and Xi is the signal measured from the individual wells. EC50 values, effective concentrations that achieved 50% inhibitory effect, were determined by non-linear fitting using Graphpad Prism software (San Diego, Calif.) and equation E2.
E2: Y=Ymin+(Ymax−Ymin)/(1+10(Log EC50-X)×HillSlope)
where Y represents percent inhibition values and X represents the logarithm of compound concentrations.
Selected disclosed compounds were assayed in the HBV replication assay (BDNA assay), as described above, and a representative group of these active compounds is shown in Table 3.

By EC50 is commonly meant the concentration that produces a half-maximal response. For `N#Cc1cc(NC(=O)N2CCc3nn4c(c3C2)SCCC(O)C4)ccc1F` (stereo not shown) [Example 2, N-(3-Cyano-4-fluorophenyl)-4-hydroxy-2,3,4,5,8,9-hexahydropyrido[4′,3′:3,4]-byrazolo[5,1-b][1,3]thiazepine-10(11H)-carboxamide], the EC50 stood at 15 nM.

As for `N#Cc1cc(NC(=O)N2CCc3nn4c(c3C2)OCC=C(CO)C4)ccc1F` [Example 1, N-(3-Cyano-4-fluorophenyl)-4-(hydroxymethyl)-5,8,9,11-tetrahydropyrido-[4′,3′:3,4]pyrazolo[5,1-b] [1,3] oxazepine-10(2H)-carboxamide], the EC50 was 18 nM. Under `N#Cc1cc(NC(=O)N2CCc3nn4c(c3C2)[S+]([O-])CCC(O)C4)ccc1F` (stereo not shown) [Example 4, N-(3-Cyano-4-fluorophenyl)-4-hydroxy-2,3,4,5,8,9-hexahydropyrido[4′,3′:3,4]-pyrazolo[5,1-b][1,3]thiazepine-10(11H)-carboxamide 1-oxide] stands 834 nM. Next, `N#Cc1cc(NC(=O)N2CCc3nn4c(c3C2)S(=O)(=O)CC(O)CC4)ccc1F` (stereo not shown) [Example 7, N-(3-Cyano-4-fluorophenyl)-3-hydroxy-2,3,4,5,8,9-hexahydropyrido[4′,3′:3,4]-pyrazolo[5,1-b][1,3]thiazepine-10(11H)-carboxamide 1,1-dioxide]: 3.5 nM. Under `N#Cc1cc(NC(=O)N2CCc3nn4c(c3C2)[S+]([O-])CC(O)CC4)ccc1F` (stereo not shown) [Example 6, N-(3-Cyano-4-fluorophenyl)-3-hydroxy-2,3,4,5,8,9-hexahydropyrido[4′,3′:3,4]-pyrazolo[5,1-b][1,3]thiazepine-10(11H)-carboxamide 1-oxide] stands 141 nM; under `N#Cc1cc(NC(=O)N2CCc3nn4c(c3C2)S(=O)(=O)CCC(O)C4)ccc1F` (stereo not shown) [Example 5, N-(3-Cyano-4-fluorophenyl)-4-hydroxy-2,3,4,5,8,9-hexahydropyrido[4′,3′:3,4]-pyrazolo[5,1-b][1,3]thiazepine-10(11H)-carboxamide 1,1-dioxide], 40 nM; under `N#Cc1cc(NC(=O)N2CCc3nn4c(c3C2)SCC(O)CC4)ccc1F` (stereo not shown) [Example 3, N-(3-Cyano-4-fluorophenyl)-3-hydroxy-2,3,4,5,8,9-hexahydropyrido[4′,3′:3,4]-pyrazolo[5,1-b][1,3]thiazepine-10(11H)-carboxamide], 5 nM.
